According to patent US5786137A, “Method for assaying components in an enzyme-protein substrate system” (Research Foundation of State University of New York, priority 1996, dated 1998):

Legend:
[1] = system: fibrinogen (FITC-fibrinogen polymerized by thrombin); conditions: 1 U/ml thrombin
Procedure: Fibrinogen was labeled with FITC using a 0.1M sodium bicarbonate buffer. After stopping the reaction with hydroxylamine (0.15M final concentration), the FITC-fibrinogen was dialyzed extensively before storage. The buffer for the polymerization reaction comprised either 0.1M NaCl, 0.05M Tris-HCl, 5 mM CaCl2 ("buffer 1") or 0.3M NaCl, 0.05M Tris-HC1, 5 mM CaCl2 ("buffer 2"). Cuvettes were incubated with 10 μM bovine serum albumin for 30 minutes to minimize adsorption of substrate to the cuvette walls.
In a series of reactions to produce fibrinogen polymerization into fibrin fibers, thrombin (final concentrations ranging from 0.1 U/ml, 0.25 U/ml, 0.5 U/ml and 1 U/ml) was mixed for about 5 seconds in either buffer 1 or buffer 2 containing a dilute FITC-fibrinogen (<40 nM) solution. Polymerization was monitored by exciting the reaction mixture with blue light (488 nm) and monitoring the fluorescence emission at 515 nm using a fluorimeter.

[2] = system: plasmin (binding to and degradation of FITC-fibrinogen); assay: Plasmin-mediated fibrinogenolysis assay: fluorescence dequenching of FITC-fibrinogen; assay type: biochemical
Procedure: To illustrate plasmin-mediated fibrinogenolysis into degradation products, 10 nM of plasmin was mixed for about 5 seconds in the reaction buffer containing 250 nM FITC-fibrinogen. […] The action of plasmin on FITC-fibrinogen produced an immediate large increase in fluorescence intensity (dequenching) in a plasmin-dependent manner (FIG. 4). The detection limit has been found under routine conditions to be at least 10 picomolar plasmin.
In that competition, some plasmin was able to bind fibrinogen as indicated by the initial rate of dequenching.

Compound	thrombin-induced quenching prevented ([1]; 100 μM GPRP added before polymerization)	rate and extent of quenching associated with polymerization ([1]; 0.1, 10 and 100 μM GPRP)	progression of fibrinogenolysis (cessation of dequenching) ([2]; addition of 10 mM ε-amino caproic acid during fibrinogenolysis)	inhibition of dequenching ([2]; excess ε-amino caproic acid added after plasmin-mediated fibrinogenolysis was initiated (FIG. 8))	dequenching rate ([2]; plasmin preincubated with 10 mM ε-amino caproic acid before addition of fluorescent-labeled fibrinogen (FIG. 7))
Gly-Pro-Arg-Pro [GPRP]	Over 80%	reduced in a dose-dependent manner			
NCCCCCC(=O)O [ε-amino caproic acid]			immediately inhibited	dose-dependent inhibition	greatly reduced
